Results as given in patent US7776823B2, “Human cathelicidin antimicrobial peptides” (priority 2003, dated 2010).
Ends that are not written are not given here.

Tests used:
[1] = system: enteroinvasive E. coli 029; test: Radial diffusion assay against E. coli 029; assay type: cell-based; details: for Action against E. coli compared to LL-37: synthetic peptides
Description: (§1) Antimicrobial assays. For screening of antimicrobial activity of HPLC fractions, radial diffusion assay was used. Lyophilized HPLC fractions were dissolved in DW (GibcoBRL, Grand Island, N.Y.), and tested against Staphylococcus aureus mprF. Thin plates (1 mm) of 1% agarose in 0.5% tryptone containing approximately […] of S. aureus mprF were used. 1 mm wells were punched in the plates and […] of samples dissolved in tissue culture grade sterile water were loaded in each well.
(§2) As a positive control, synthetic LL-37 was applied to separate wells. After incubation at 37° C. overnight, the inhibition zones were recorded by CCD camera and diameters measured. To evaluate antimicrobial activity against wild-type S. aureus (clinical isolate), and enteroinvasive E. coli 029, both radial diffusion and solution killing assays were done. Radial diffusion assays were done as described for S. aureus mprF. Solution killing was done in 10% TSB in 10 mM PB (TSB=30 gm/L Tryptic Soy Broth, Sigma, St Louis Mo.; 20×PB=27.6 g/L NaH2PO4-H2O, 53.65 g/L Na2HPO4-7H2O, pH 7.4). Bacteria in log-phase growth were suspended to 1×10^6 cells/ml, peptide added and incubated at 37° C. for 2 hr. Bacteria were then plated on TSB agar (TSB, Bactoagar 13 g/L, Becton Dickinson, Sparks Md.) for direct colony count and determination of CFU.

[2] = system: Group A Streptococcus (NZ131); assay type: cell-based
Description: as §2
(§3) Activity against Group A Streptococcus (NZ131) was done only in solution assay as described. To evaluate antimicrobial activity in high salt conditions, solution assay was done in 10% TSB/10 mM PBS with several salt concentrations (concentration of NaCl; 10, 50, 100, 150, 300, 500 mM). Action against the C. albicans was determined in Dixon medium (0.6% Peptone, 4% Malt Extract, 1% Glucose, 0.1% Ox Bile, 1% Tween-80) in sterile 96-well microtiter plates (Corning Inc., Corning, N.Y.) at a final volume of […]. The assay mixtures contained 1-2.5×10^4 […] freshly grown Candida, 20% Dixon medium, 0.6 mM phosphate buffer pH 7, and […] chloramphenicol. Microtiter plates were incubated at 37° C. for 24 h with peptides, then plated on Dixon agar to determine the MFC (minimum fungicide concentration).

[3] = system: wild-type S. aureus (clinical isolate); test: Radial diffusion assay against wild-type S. aureus; assay type: cell-based, Staphylococcus aureus; details: for Action against wild-type S. aureus compared to LL-37: synthetic peptides
Description: as §1, §2

[4] = system: C. albicans ATCC 14053; test: Liquid assay against C. albicans (minimum fungicide concentration); assay type: cell-based, Candida albicans; details: for Fungicidal activity against Candida albicans compared to LL-37: synthetic peptides
Description: as §3

[5] = system: Staphylococcus aureus mprF; test: Radial diffusion assay against S. aureus mprF; assay type: cell-based
Description: as §1, §2

[6] = system: human erythrocytes; test: Hemolysis assay on human whole blood; assay type: cell-based
Description: Hemolysis Assay. Hemolytic activity was determined on human whole blood. Freshly obtained whole blood was washed 3× in PBS and resuspended in PBS at its original volume containing peptides at indicated concentrations. Samples were incubated at 37° C. for 1.5 to 3 h, and hemolysis determined by centrifuging at 300 g and measurement of the absorbance of the supernatant at 578 nm. Hemolytic activity of each peptide was expressed as the percentage of total hemoglobin released compared to that released by incubating with 0.1% Triton X-100.

[7] = system: S. aureus; test: Release of cytoplasmic beta-galactosidase (membrane disruption); assay type: cell-based; details: with carbonate versus without
Description: Release of cytoplasmic expressed beta-galactosidase was measure from bacteria with and without the addition of NaHCO3.

[8] = system: Staphylococcus aureus; test: S. aureus growth inhibition (turbidity OD600) with or without carbonate; assay type: cell-based; details: for Effect of NaHCO3 on minimal inhibitory concentration (MIC) against Staph aureus: 20% TSB, 1 mM NaH2PO4, 50 mM NaHCO3, pH 7.4; for Susceptibility of S. aureus: 16 uM peptide
Description: Carbonate was identified as the antimicrobial enhancing factor in mammalian tissue culture media via serial deletion of Minimal Essential Media (MEM) components. Staphylococcus aureus was cultured in 20% Tryptic Soy Broth (TSB), 10% Fetal Bovine Serum (FBS) and 70% of various media or media components with, or without, 32 μM LL-37 to assess which components could increase antimicrobial activity. MEM buffers are 2200 mg/L NaHCO3, 140 mg/L NaH2PO4 and 6800 mg/L NaCl. MEM salts are 200 mg/L CaCl2, 400 mg/L KCl, 98 mg/L MgSO4. All solutions were adjusted to pH 7.4. Bacterial growth was measured as the change in turbidity at OD600 and percent inhibition was determined by comparing bacterial growth in the presence of peptide to that in the absence of peptide. […]
Inhibition of Staph aureus growth in the presence of various concentrations of human (LL-37), murine (CRAMP) and porcine (PR-39). Cathelicidin antimicrobial peptides was measured in 20% TSB, 1 mM NaH2PO4, with, or without, 50 mM NaHCO3 at pH 7.4. […]

[9] = system: E. coli; test: E. coli susceptibility to CRAMP with or without NaHCO3; assay type: cell-based; details: 16 uM peptide
[10] = system: Salmonella; test: Salmonella susceptibility to CRAMP; assay type: cell-based; details: 16 uM peptide; without NaHCO3
[11] = system: antigen presentation; test: Antigen presentation in vitro; assay type: cell-based
[12] = system: Group B Strep (GBS); test: Group B Strep susceptibility to CRAMP; assay type: cell-based; details: 16 uM peptide; without NaHCO3

Substance	Radial Diffusion Assay minimal inhibitory concentration (MIC), E. coli (029) [1]	Liquid Assay minimal concentration required to kill GAS (NZ131) [2]	Radial Diffusion Assay minimal inhibitory concentration (MIC), S. aureus (wt) [3]	Liquid Assay minimal concentration required to kill C. albicans ATCC 14053 [4]	Fungicidal activity against Candida albicans compared to LL-37 [4]	Radial Diffusion Assay minimal inhibitory concentration (MIC), S. aurus MprF [5]	% hemolysis [6]	further results
KRIVQRIKDFLRNLVPRTES (listed as Homo sapiens) [KR-20, 20 amino acid cathelicidin derivative]	>64 μm	4 μm	>64 μm	10 μm	increased fungicidal activity	16 μm	0%	–
RKSKEKIGKEFKRIVQRIKDFLRNLVPRTES (listed as Homo sapiens) [RK-31, cathelicidin peptide generated from LL-37]	8 μm	8 μm	16 μm	4 μm	increased fungicidal activity	8 μm	6%	Action against E. coli compared to LL-37 [1]: greatly increased action; Action against wild-type S. aureus compared to LL-37 [3]: greatly increased action
KSKEKIGKEFKRIVQRIKDFLRNLVPRTES [KS-30]	8 μm	4 μm	16 μm	2 μm	increased fungicidal activity	8 μm	.23%	Action against E. coli compared to LL-37 [1]: greatly increased action; Action against wild-type S. aureus compared to LL-37 [3]: greatly increased action
Polymyxin B	–	–	–	–	–	–	–	Leakage of cytoplasmic protein (beta-galactosidase) from S. aureus [7]: greater leakage
SSLLEKGLDGAKKAVGGLGKLGKDAVEDLESVGKGAVHDVKDVLDSV (listed as Homo sapiens) [DCD, dermcidin antimicrobial peptide of human sweat, reference compound]	>64 μm	>64 μm	>64 μm	>32 μm	–	>64 μm	–	–
PR-39: porcine cathelicidin antimicrobial peptide (RRRPRPPYLPRPRPPPFFPPRLPPRIPPGFPPRFPPRFP; UniProt P80054 131-169, looked up)	–	–	–	–	–	–	–	Effect of NaHCO3 on minimal inhibitory concentration (MIC) against Staph aureus [8]: greatly reduced
CRAMP	–	–	–	–	–	–	–	Susceptibility of E. coli ([9]; with 50 mM NaHCO3): susceptible; Susceptibility of E. coli ([9]; without 50 mM NaHCO3): resistant; Susceptibility of Salmonella [10]: susceptible; Susceptibility of S. aureus ([8]; with 50 mM NaHCO3): susceptible; Susceptibility of S. aureus ([8]; without 50 mM NaHCO3): resistant; Effect of NaHCO3 on minimal inhibitory concentration (MIC) against Staph aureus [8]: greatly reduced; Antigen presentation in vitro [11]: inhibits antigen presentation; Susceptibility of Group B Strep (GBS) [12]: susceptible
